≈ marks a conversion by molar mass, not a printed value.
System: Mtb Y314C mutant strain
Type: cell-based, Mycobacterium tuberculosis

First: CCOC(=O)NC(=O)c1ccsc1NC(=O)c1nc2cnccc2s1 [TCA007]
Second: CCOC(=O)NC(=O)c1ccsc1NC(=O)c1nc2ccccc2s1 [TCA1]
The “MIC Y314C” value of the first is 2.3-fold lower: 2.4 ± 0.34 µM (≈ 0.903 µg/mL) for the first, 5.4 ± 0.32 µM (≈ 2.03 µg/mL) for the second.

`Cc1ccnc(NC(=O)c2ccsc2NC(=O)c2nc3cnccc3s2)n1` [TCA787] and `O=C(Nc1sccc1C(=O)Nc1ncccn1)c1nc2cnccc2s1` [TCA020] are within 1.5-fold of each other in “MIC Y314C” value: 14 ± 1.4 µM (≈ 5.55 µg/mL) for the first, 17 ± 1.1 µM (≈ 6.5 µg/mL) for the second.

With `CCOC(=O)NC(=O)c1cc(F)sc1NC(=O)c1nc2ccccc2s1` [TCA481] the “MIC Y314C” value was 1.4 ± 0.086 µM (≈ 0.551 µg/mL).
